According to US8993606B2, “Oral formulations for treating metal overload” (FerroKin BioSciences, Inc., priority 2011, dated 2015):

What was measured:
Type in all cases: in vivo, human
[1] = system: patients with transfusional iron overload; assay: Example 11: efficacy study, R2 liver iron concentration per FerriScan MRI (text: mg/g liver dw)
Method: The goal of this experiment was to: 1. evaluate the safety and tolerability based on clinical assessments of two doses (16 and 32 mg/kg/d) of Compound 1 when administered daily for 24 weeks to patients with transfusional iron overload; 2. identify a differential response between dose groups in liver iron concentration determined by magnetic resonance imaging (MRI) after 24 weeks of dosing; and 3. assess the safety and efficacy activity of Compound 1 when administered daily for up to 96 weeks.
This experiment is an open-label, randomized study of two dose levels (16 and 32 mg/kg/d) of Compound 1 administered once daily for 24 weeks to eligible patients with transfusional iron overload requiring chelation therapy, with a dosing extension of 72 additional weeks.
Patients were assigned to one of two strate: “high” or “low” transfusion burden based on the average iron intake of the six transfusion sessions. Patients within each transfusion burden groups were randomized to one of two Compound 1 treatment arms: 16 mg/kg/d (16 mpk) or 32 mg/kg/d (32 mpk). The stratification followed by randomization to treatment arms helps to ensure an equal distribution of patients with “high” and “low” transfusion burdens to the high or low dose of Compound 1. Each treatment arm received one dose of Compound 1 daily for 24 weeks.
At the conclusion of the 24 week dosing period, patients who qualify and consent to continue treatment continued for an additional 72 weeks of Compound 1 dosing.
The inclusion of 25 patients in each treatment group provided a statistical power of 0.80 to detect, within 6 months, an LIC difference (normalized for initial LIC) of 3 mg/g dry weight between the two dose groups as determined by MRI. Baseline characteristics between dose groups were compared using Fisher extract test or Wilcoxon rank sum test as appropriate. The change in baseline to week 12, 24, and 72 values for all pharmacodynamics parameters were analyzed by an ANCOVA model with main effect for treatment group with baselines value for the corresponding parameters and transfusion burdon (iron input) during the study and baseline liver iron concentration as covariates comparing the two active treatment groups. T2* values were natural log transformed and summarized as the geometric mean (the antilog of the mean of the log data) plus or minus the co-efficient of variation (CV) defined as square root of eMSE where MSE is defined as the mean square error and subject to ANCOVA setting the p value as the threshold for statistical significance at 0.05 (confidence level of 95%).
Conducted was a multicenter, randomized, open-label study of adult subjects with documented transfusional iron overload in need of chelation therapy. Transfusional iron overload was defined as LIC by R2 (FerriScan®) magnetic resonance imaging (MRI)≧3.5 mg/g liver dw or serum ferritin>500 ng/mL. Subjects received investigational product for 24 weeks with an extension of 72 weeks for the evaluation of long-term safety and efficacy. The 24-week and 48-week pharmacodynamics results are described in this section. A total of 51 subjects enrolled and 49 completed the initial 24-week treatment period.

[2] = Preliminary analysis of pharmacokinetic results from the clinical studies as a whole
Source text: The results were similar across the common doses in the 4 studies. […] See also FIG. 10.

iron-overloaded subjects = assay: Safety: multiple-dose study in iron-overloaded subjects
Method: Twenty iron-overloaded subjects were enrolled and completed the study. Four subjects in each cohort were orally administered 3, 8, 16, or 32 or 40 mg/kg/day of Compound 1 for 7 consecutive days.

[3] = system: pediatric subjects (aged 6-18 years) with documented transfusional iron overload; assay: Safety: pediatric Phase 2 study
Source text: A pediatric study is an ongoing Phase 2 multicenter, randomized, open-label study of pediatric subjects (aged 6-18 years) with documented transfusional iron overload in need of chelation therapy. 6 subjects (aged 12-<18 years) of a planned 30 subjects had been enrolled and administered investigational product. These subjects received a single dose for pharmacokinetic analysis with the option to continue in the 48-week study. […] Dosing was temporarily discontinued for 2 subjects; 1 subject for moderate decrease in neutrophil count, which was considered possibly related, and 1 for a mild upper respiratory tract infection that was considered not related. Treatment-emergent AEs were reported for 5 of the 6 subjects. Treatment emergent AEs considered possibly related to the investigational product include arthralgia (1), decreased neutrophil count (1), neutropenia (1), and headache (1).

[4] = randomized to 16 mg/kg/d, dose adjustments after week 24
[5] = randomized to 32 mg/kg/d, dose adjustments after week 24

COCCOCCOCCOc1cccc(C2=N[C@@](C)(C(=O)O)CS2)c1O [Compound 1, (S)-4,5-Dihydro-2-[2-hydroxy-3-(3,6,9-trioxadecyloxy)phenyl]-4-methyl-4-thiazolecarboxylate magnesium hydroxide]
R2 LIC Change from Baseline to Week 12, Mean (SD) ([1]; 16 mg/kg/d): 2.68 (4.050)
R2 LIC Change from Baseline to Week 12, Median ([1]; 16 mg/kg/d): 0.90
R2 LIC Change from Baseline to Week 24, Mean (SD) ([1]; 16 mg/kg/d): 3.08 (5.552)
R2 LIC Change from Baseline to Week 24, Median ([1]; 16 mg/kg/d): 1.10
R2 LIC Week 12, Mean (SD) ([1]; 16 mg/kg/d): 15.90 (9.446)
R2 LIC Week 12, Median ([1]; 16 mg/kg/d): 11.70
R2 LIC Week 24, Mean (SD) ([1]; 16 mg/kg/d): 16.31 (10.570)
R2 LIC Week 24, Median ([1]; 16 mg/kg/d): 11.50
R2 LIC Change from Baseline to Week 12, Mean (SD) ([1]; 32 mg/kg/d): −0.22 (2.827)
R2 LIC Change from Baseline to Week 12, Median ([1]; 32 mg/kg/d): 0.10
R2 LIC Change from Baseline to Week 24, Mean (SD) ([1]; 32 mg/kg/d): −0.27 (4.950)
R2 LIC Change from Baseline to Week 24, Median ([1]; 32 mg/kg/d): 0.20
R2 LIC Week 12, Mean (SD) ([1]; 32 mg/kg/d): 13.59 (8.684)
R2 LIC Week 12, Median ([1]; 32 mg/kg/d): 10.70
R2 LIC Week 24, Mean (SD) ([1]; 32 mg/kg/d): 13.25 (8.510)
R2 LIC Week 24, Median ([1]; 32 mg/kg/d): 9.30
LIC from baseline to Weeks 12 and 24 ([1]; 16 mpk): statistically significant increase
LIC from baseline at the first 24 weeks ([1]; 32 mpk): remained relatively unchanged
R2 LIC Change from Baseline to Week 12, Mean (SD) ([1]; Total (both dose groups)): 1.20 (3.740)
R2 LIC Change from Baseline to Week 12, Median ([1]; Total (both dose groups)): 0.70
R2 LIC Change from Baseline to Week 24, Mean (SD) ([1]; Total (both dose groups)): 1.37 (5.467)
R2 LIC Change from Baseline to Week 24, Median ([1]; Total (both dose groups)): 0.50
R2 LIC Change from Baseline to Week 48, Mean (SD) ([1]; Total (both dose groups)): −0.63 (3.632)
R2 LIC Change from Baseline to Week 48, Median ([1]; Total (both dose groups)): −0.20
R2 LIC Change from Baseline to Week 72, Mean (SD) ([1]; Total (both dose groups)): −0.69 (4.975)
R2 LIC Change from Baseline to Week 72, Median ([1]; Total (both dose groups)): −0.80
R2 LIC Week 12, Mean (SD) ([1]; Total (both dose groups)): 14.72 (9.046)
R2 LIC Week 12, Median ([1]; Total (both dose groups)): 11.10
R2 LIC Week 24, Mean (SD) ([1]; Total (both dose groups)): 14.75 (9.599)
R2 LIC Week 24, Median ([1]; Total (both dose groups)): 11.00
R2 LIC Week 48, Mean (SD) ([1]; Total (both dose groups)): 11.74 (7.813)
R2 LIC Week 48, Median ([1]; Total (both dose groups)): 8.80
R2 LIC Week 72, Mean (SD) ([1]; Total (both dose groups)): 11.31 (7.904)
R2 LIC Week 72, Median ([1]; Total (both dose groups)): 8.70
mean change from baseline LIC ([1]; Week 48, 19 subjects randomized to 16 mg/kg/day): 0.1 mg/g
mean change from baseline LIC ([1]; Week 48, 20 subjects originally randomized to 32 mg/kg/day): -1.3 mg/g
difference in the mean change from baseline between treatment groups ([1]; at 24 weeks, p<0.03): 3.4 mg/g
dose-response in iron chelating capacity ([1]; between 16 and 32 mpk, first 24-weeks): clear dose-response
LIC from Week 24 ([1]; doses of 32 mpk and greater): reduction in LIC
subjects with lower LIC at 24 weeks compared to Baseline ([1]; high dose group (32 mg/kg/day)): 11 of 25
mean change in LIC ([1]; high dose group (32 mg/kg/day), 24 weeks): −0.3 mg/g liver (dw)
subjects with lower LIC at 24 weeks compared with Baseline ([1]; low dose group (16 mg/kg/day)): 7 of 24
mean change in LIC (net gain) ([1]; low dose group (16 mg/kg/day), 24 weeks): 3.1 mg/g liver (dw)
R2 LIC Change from Baseline to Week 48, Mean (SD) [1, 4]: 0.09 (4.015)
R2 LIC Change from Baseline to Week 48, Median [1, 4]: 0.00
R2 LIC Change from Baseline to Week 72, Mean (SD) [1, 4]: 0.52 (3.654)
R2 LIC Change from Baseline to Week 72, Median [1, 4]: 0.50
R2 LIC Week 48, Mean (SD) [1, 4]: 11.68 (6.369)
R2 LIC Week 48, Median [1, 4]: 9.30
R2 LIC Week 72, Mean (SD) [1, 4]: 10.74 (6.373)
R2 LIC Week 72, Median [1, 4]: 9.40
R2 LIC Change from Baseline to Week 48, Mean (SD) [1, 5]: −1.32 (3.177)
R2 LIC Change from Baseline to Week 48, Median [1, 5]: −0.90
R2 LIC Change from Baseline to Week 72, Mean (SD) [1, 5]: −1.83 (5.853)
R2 LIC Change from Baseline to Week 72, Median [1, 5]: −1.80
R2 LIC Week 48, Mean (SD) [1, 5]: 11.81 (9.145)
R2 LIC Week 48, Median [1, 5]: 7.70
R2 LIC Week 72, Mean (SD) [1, 5]: 11.84 (9.307)
R2 LIC Week 72, Median [1, 5]: 8.70
dose proportionality ([2]; dosing range of 3 to 50 mg/kg, preliminary analysis): dose-proportionality in Cmax and AUC
Tmax ([2]; human, plasma, oral, in each study): ~1 h
TEAE QT prolonged (iron-overloaded subjects; 1 subject): 5%
TEAE abdominal pain upper (iron-overloaded subjects; 1 subject): 5%
TEAE blood urine present (iron-overloaded subjects; 1 subject): 5%
TEAE chromaturia (iron-overloaded subjects; 1 subject): 5%
TEAE dizziness (iron-overloaded subjects; 1 subject): 5%
TEAE feeling hot (iron-overloaded subjects; 1 subject): 5%
TEAE pruritus (iron-overloaded subjects; 1 subject): 5%
TEAE tachycardia (iron-overloaded subjects; 1 subject): 5%
TEAE flatulence (iron-overloaded subjects; 2 subjects): 10%
tolerability (iron-overloaded subjects; 3, 8, 16, 32 or 40 mg/kg/day for 7 consecutive days): generally well tolerated
TEAE headache (iron-overloaded subjects; 5 subjects): 25%
TEAE urine color abnormal (iron-overloaded subjects; 8 subjects, related to study drug): 40%
subjects with at least 1 TEAE (iron-overloaded subjects; 20 subjects, majority mild and unrelated to study drug): 90%
QTcB interval prolongation (iron-overloaded subjects; one subject, Day 7 of treatment, not observed with QTcF): 20 ms
SAE recorded (iron-overloaded subjects; subject at 3 mg/kg/day, sickle cell crisis, not related to treatment): 1 SAE
possibly related TEAE arthralgia ([3]; 6 subjects): 1
possibly related TEAE decreased neutrophil count ([3]; 6 subjects): 1
possibly related TEAE headache ([3]; 6 subjects): 1
possibly related TEAE neutropenia ([3]; 6 subjects): 1
SAEs ([3]; 6 subjects aged 12-<18 years): No SAEs have been reported
subjects with treatment-emergent AEs ([3]; 6 subjects aged 12-<18 years): 5 of the 6
